The results in this text go back to paper PMC7156458, “Synthetic biology based construction of biological activity-related library of fungal decalin-containing diterpenoid pyrones” (Nature Communications, 2020).

One assay concerns MCF-7 cells. In words: mammosphere formation assay. It is filed as cell-based, human. As to conditions: MCF-7, 5 μM; for MFE (%) ave / MFE (control = 1) ave / MFE (%): 7 days; for MFE (%) ave: mean of 3, control 0.87; for MFE (control = 1) ave: relative to control = 1; for MFE (%): single replicates. The method, then:
We also evaluated antiproliferative activity against cancer stem cells (CSCs), which are a small sub-population in tumour bulk identified in most cancer cells and clinical samples[52]. CSCs have been a major problem in cancer therapy because they are responsible for recurrence, metastasis and drug resistance to chemotherapeutic agents that affect proliferative cells[53]–[56]. Anti-CSC activity was evaluated by the inhibition of sphere-forming ability, a well-studied method to enrich the CSC-like population, and selective cytotoxicity against one of the most reliable CSC markers, aldehyde dehydrogenase (ALDH)-positive cells. […] Low-toxicity 16 was also added as a negative control. […] We next evaluated the three DDPs that inhibited mammosphere formations against ALDH-positive cells, a functional marker for breast CSCs. MCF-7 cells were treated with 1 μM of 11, 12 or 22, and the ALDH-positive cell population was analysed by using a fluorescence activated cell sorter (Supplementary Fig. 46b). […] Thus, for the first time, we successfully found DDPs with potent antiproliferative effects on the CSC-like population in MCF-7 cells, which may lead to new anti-CSC drugs.
Fig. 5 DDPs show anti-CSC activity in breast cancer cell line MCF-7. a Effect of DDPs on mammosphere formation. After the cells were cultured in the presence of 5 μM DDPs for 7 days, the number of mammospheres was microscopically counted and the percentage of mammosphere-forming cells was determined as mammosphere-forming efficiency (MFE; %). Data represent mean ± s.d. from three independent replicate experiments. P-values were calculated by a two-sided unpaired Student’s t-test, compared with control. b Micrographs show representative images of mammosphere formation from three independent replicate experiments using compound 11, 12, 16, 22. The scale bar, […]. c Effect of DDPs (1 μM, 3 days) on ALDH-positive cells in MCF-7 cells. Data represent mean ± s.d. from three independent replicate experiments. P-values were calculated by a two-sided unpaired Student’s t-test, compared with control. d Dose-dependent effect of compound 12 on ALDH-positive cells in MCF-7 cells. Data represent mean ± s.d. from three independent replicate experiments. P-values were calculated by a two-sided unpaired Student’s t-test. Source data underlying Fig. 5a, c, d are provided in a Source Data file.

The next assay has as its system MCF-7. In words: cells. On the set-up: species or system JFCR39 human cancer cell lines; JFCR39 panel growth inhibition, sulforhodamine B total protein after 48 h. Particulars: Homo sapiens, MCF7, 48 h. Here is the method: (§1) Supplementary Note 24. Antiproliferative effects across the panel of JFCR39 cancer cell lines A panel of 39 human cancer cell lines, termed JFCR39, were previously described13-16. Cells were grown in RPMI-1640 (FUJIFILM Wako Pure Chemical Corporation, Tokyo, Japan) supplemented with 1 µg mL-1 kanamycin and 5% (v/v) fetal bovine serum (Nichirei Biosciences Inc, Tokyo, Japan) and incubated at 37°C in a humidified atmosphere supplemented with 5% CO2. Drug efficacy was assessed as changes in total cellular protein after 48 hours of drug treatment using a sulforhodamine B assay. Assays were done in duplicate and the GI50 was calculated as described previously13,16. The antitumor profile across the JFCR39 panel, or fingerprints were then compared to reference database containing ~2000 compounds by COMPARE algorithm16,17. Initially, we evaluated new DDP analogues for their antiproliferative activities across the panel of 39 human cancer cell lines, JFCR39[50],[51].

A further assay has as its system SF-268. In words: cells. As to conditions: for GI50: Homo sapiens, SF-268, 48 h. The arrangement: species or system JFCR39 human cancer cell lines; JFCR39 panel growth inhibition, sulforhodamine B total protein after 48 h. The method, then:
as §1

The test system of another assay is ACHN. In words: cells. On the set-up: species or system JFCR39 human cancer cell lines; JFCR39 panel growth inhibition, sulforhodamine B total protein after 48 h. Particulars: 48 h; for GI50: Homo sapiens, ACHN. The method, then:
as §1

Another assay relates to MKN1. The assay can be described thus: cells. On the set-up: species or system JFCR39 human cancer cell lines; JFCR39 panel growth inhibition, sulforhodamine B total protein after 48 h. Particulars: for GI50: Homo sapiens, MKN-1, 48 h. The method, then: as §1
The next assay concerns SK-OV-3. The assay can be described thus: cells. The arrangement: species or system JFCR39 human cancer cell lines; JFCR39 panel growth inhibition, sulforhodamine B total protein after 48 h. As to conditions: for GI50: Homo sapiens, SK-OV-3, 48 h. Here is the method: as §1
Another assay relates to KM-12. In words: cells. On the set-up: species or system JFCR39 human cancer cell lines; JFCR39 panel growth inhibition, sulforhodamine B total protein after 48 h. As to conditions: for GI50: Homo sapiens, KM12, 48 h. The method, then: as §1
The subject of another assay is DMS273. In words: cells. As to conditions: for GI50: Homo sapiens, DMS-273, 48 h. On the set-up: species or system JFCR39 human cancer cell lines; JFCR39 panel growth inhibition, sulforhodamine B total protein after 48 h. Here is the method: as §1
A further assay deals with NCI-H23. In words: cells. As to conditions: for GI50: Homo sapiens, NCI-H23, 48 h. On the set-up: species or system JFCR39 human cancer cell lines; JFCR39 panel growth inhibition, sulforhodamine B total protein after 48 h. The method, then:
as §1

The test system of a further assay is OVCAR-8. In words: cells. The arrangement: species or system JFCR39 human cancer cell lines; JFCR39 panel growth inhibition, sulforhodamine B total protein after 48 h. Particulars: for GI50: Homo sapiens, OVCAR-8, 48 h. The method, then:
as §1

A further assay deals with HCT-15. In words: cells. As to conditions: for GI50: Homo sapiens, HCT-15, 48 h. On the set-up: species or system JFCR39 human cancer cell lines; JFCR39 panel growth inhibition, sulforhodamine B total protein after 48 h. The method, then:
as §1

The next assay relates to BSY-1. In words: cells. The arrangement: species or system JFCR39 human cancer cell lines; JFCR39 panel growth inhibition, sulforhodamine B total protein after 48 h. As to conditions: for GI50: BSY-1, 48 h. The method, then:
as §1

The test system of assay [1] is hepatitis B virus (HBV), measles virus (MV), Epstein-Barr virus (EBV), herpes simplex virus (HSV). The assay can be described thus: preliminary anti-viral screening (other viruses). It is filed as cell-based. The text has this: We examined the inhibitory activities of DDPs against various species of bacteria (both gram-negative and gram-positive bacteria), fungi and viruses. […] In contrast, preliminary screening of the DDPs for anti-viral agents with hepatitis B virus (HBV), measles virus (MV), Epstein-Barr virus (EBV), herpes simplex virus (HSV) and human immunodeficiency virus-1 (HIV-1) indicated their selective inhibition of HIV.

Where [2] appears, read: 48 h, inhibitor, Log GI50, 48 h.

SMILES strings stand for the structures. Several values for one entry are separate records, joined by “and”; a condition that tells them apart may be missing. Equal entries are not always repeated.

In general, GI50 refers to the concentration giving 50% growth inhibition. A lower GI50 goes with greater sensitivity of the cells. For the compound `C=C1CC[C@@H]2[C@](C)(CC[C@H]3O[C@H](C=C(C)C)C[C@@]23C)[C@@H]1Cc1c(OC)oc(C)c(C)c1=O` [Compound 22, O-methylated higginsianin A], in the assay on MCF-7 cells, the “effect on sphere formation” value was “clearly inhibited sphere formation”. Besides, the “MFE (%) ave” value in the assay with MCF-7 cells turned out to be 0.41%. For the same compound, the “MFE (control = 1) ave” value in the assay with MCF-7 cells stood at 0.47. Also, the “MFE (%)” value with MCF-7 cells is 0.40% and 0.42%. In addition, the GI50 in the assay with MCF-7 was 1.5 µM; in the assay with SF-268, 8.18 µM; in the assay with ACHN it was 2.33 µM; with MKN1, 10.2 µM; in the assay on SK-OV-3 it was 10.6 µM; in the assay with KM-12 it was 10.6 µM. Moreover, the values for the GI50 with DMS273, in the assay on NCI-H23 and with OVCAR-8 were 0.224 µM, 0.729 µM and 4.78 µM, respectively.

In the case of `C=C1CCC2C(C)(CCC=C(C)C)C(O)CCC2(C)C1Cc1c(OC)oc(CO)c(C(=O)OC)c1=O` (stereo not shown) [Compound 13], the GI50 is 18.5 µM in the assay on HCT-15; 13.8 µM in the assay on MCF-7; 20.2 µM in the assay on SF-268; 13.9 µM in the assay on BSY-1; 12 µM with ACHN; 18.8 µM in the assay on MKN1. In addition, the GI50 is 16.3 µM in the assay with SK-OV-3; 19.1 µM with KM-12; 16.3 µM with DMS273; 10.9 µM with NCI-H23; 17.1 µM with OVCAR-8.

Regarding `C=C1CC[C@@H]2[C@](C)(CC[C@H]3O[C@H](C=C(C)C)C[C@@]23C)[C@@H]1Cc1c(OC)oc(CO)c(C(=O)OC)c1=O` [Compound 21], the concentration for 50% growth inhibition (GI50) with HCT-15 was 17.6 µM; with MCF-7, 14.2 µM; in the assay with SF-268 it was 19.5 µM; in the assay on BSY-1, 14.9 µM; in the assay on ACHN, 12.2 µM; with MKN1 it was 18.5 µM. Further, the concentration for 50% growth inhibition (GI50) is 17.3 µM in the assay on SK-OV-3; 18.2 µM with KM-12; 16.6 µM in the assay with DMS273; 11.1 µM in the assay on NCI-H23; 16.7 µM with OVCAR-8.

Take `C=C1CCC2C(C)(CC(=O)C=C(C)C)C(O)CCC2(C)C1Cc1c(OC)oc(CO)c(C)c1=O` (stereo not shown) [Compound 19]: the concentration for 50% growth inhibition (GI50) in the assay on HCT-15 is 52.8 µM; with MCF-7 it was 25.4 µM; in the assay on SF-268, 69.5 µM; in the assay with BSY-1, 33.3 µM; in the assay with ACHN, 14.8 µM; with MKN1, 78.2 µM. The GI50 was 83.2 µM with SK-OV-3; 56.2 µM in the assay on KM-12; 9.98 µM in the assay on DMS273; 11.9 µM in the assay with NCI-H23; 40.8 µM in the assay with OVCAR-8.

For the compound `C=C1CCC2C(C)(CCC=C(C)C)C(O)CCC2(C)C1Cc1c(OC)oc(CO)c(C)c1=O` (stereo not shown) [Compound 16], the “effect on sphere formation” value in the assay with MCF-7 cells is “did not affect sphere formation”. Besides, in the assay with MCF-7 cells, the “MFE (%) ave” value is given as 0.87%. Besides, the “MFE (control = 1) ave” value with MCF-7 cells worked out at 1.00. For the same compound, the “MFE (%)” value in the assay on MCF-7 cells was 0.62% and 1.01% and 0.96%. In addition, the “Log GI50” value is on record as -5.220 M in the assay with HCT-15 (setting [2]); -4.944 M in the assay on SF-268 (setting [2]); -4.961 M in the assay with BSY-1 (setting [2]); -5.541 M in the assay on ACHN (inhibitor, Log GI50, 48 h); -4.787 M in the assay with MKN1 (setting [2]); -4.993 M in the assay on SK-OV-3 (setting [2]). Moreover, the “Log GI50” value in the assay with KM-12 (setting [2]) was -4.862 M; with DMS273 (setting [2]), -5.822 M; in the assay with NCI-H23 (setting [2]), -5.618 M; in the assay on OVCAR-8 (setting [2]), -5.076 M. Also, halving of growth in the assay on MCF-7 (GI50) required 4.46 µM.

Turning to `C=C1CCC2C(C)(CCC=C(C)C)C(O)CCC2(C)C1Cc1c(OC)oc(C)c(C(=O)OC)c1=O` (stereo not shown) [Compound 14], the GI50 was 10.2 µM with HCT-15; 2.4 µM in the assay on MCF-7; 12.8 µM in the assay with SF-268; 10.2 µM in the assay on BSY-1; 10.9 µM in the assay with ACHN; 16.1 µM with MKN1. Further, the concentration for 50% growth inhibition (GI50) is 13.6 µM in the assay with SK-OV-3; 14.1 µM in the assay with KM-12; 0.289 µM in the assay with DMS273; 2.61 µM in the assay on NCI-H23; 8.57 µM with OVCAR-8. For the same compound, in [1], the “effect on other viruses” value is reported as “without affecting other viruses”.
